We go through one compound from publication PMC11873566 (Acta Pharmaceutica Sinica. B, 2024).

By pKd is commonly meant the Kd on a negative log10 scale, so that one unit is a factor of ten.

The target in this experiment is alpha-enolase (ENO1) (Homo sapiens, UniProt P06733). The experiment can be described thus: MST with NT-647-NHS labelled recombinant ENO1. The class given is binding.

pKd: −log10 of the molar value.

Chain of alpha-enolase (ENO1) (P06733 2-434): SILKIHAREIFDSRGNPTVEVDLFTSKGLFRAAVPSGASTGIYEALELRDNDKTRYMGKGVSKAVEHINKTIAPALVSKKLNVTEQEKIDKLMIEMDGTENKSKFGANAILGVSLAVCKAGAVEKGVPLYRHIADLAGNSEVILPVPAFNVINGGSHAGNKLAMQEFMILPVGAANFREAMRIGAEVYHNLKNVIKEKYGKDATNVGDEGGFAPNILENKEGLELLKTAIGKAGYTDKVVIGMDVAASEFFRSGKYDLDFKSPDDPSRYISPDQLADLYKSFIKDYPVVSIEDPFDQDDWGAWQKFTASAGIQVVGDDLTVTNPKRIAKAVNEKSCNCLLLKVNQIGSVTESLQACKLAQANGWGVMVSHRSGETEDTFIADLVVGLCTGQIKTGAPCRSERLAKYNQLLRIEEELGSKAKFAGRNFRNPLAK

As to `O=c1cc(-c2ccccc2)oc2cc(O)cc(O)c12` [compound 1, chrysin], the negative-log Kd (pKd) is 4.82.
